Test results as given in ChEMBL document CHEMBL5518240 (J Med Chem, 2024).

How the values were obtained:
[1] = molecular target: T1, Protein cereblon/CREB-binding protein (Homo sapiens, UniProt Q92793+Q96SW2); assay: PROTAC activity at CBP/CRBN in AR positive human VCaP cells assessed as maximal protein degradation at 0.15 nM incubated for 4 hrs by Western blot analysis relative to control; format: cell-based
Target sequence in this assay (Q92793 2-2442 limits assumed): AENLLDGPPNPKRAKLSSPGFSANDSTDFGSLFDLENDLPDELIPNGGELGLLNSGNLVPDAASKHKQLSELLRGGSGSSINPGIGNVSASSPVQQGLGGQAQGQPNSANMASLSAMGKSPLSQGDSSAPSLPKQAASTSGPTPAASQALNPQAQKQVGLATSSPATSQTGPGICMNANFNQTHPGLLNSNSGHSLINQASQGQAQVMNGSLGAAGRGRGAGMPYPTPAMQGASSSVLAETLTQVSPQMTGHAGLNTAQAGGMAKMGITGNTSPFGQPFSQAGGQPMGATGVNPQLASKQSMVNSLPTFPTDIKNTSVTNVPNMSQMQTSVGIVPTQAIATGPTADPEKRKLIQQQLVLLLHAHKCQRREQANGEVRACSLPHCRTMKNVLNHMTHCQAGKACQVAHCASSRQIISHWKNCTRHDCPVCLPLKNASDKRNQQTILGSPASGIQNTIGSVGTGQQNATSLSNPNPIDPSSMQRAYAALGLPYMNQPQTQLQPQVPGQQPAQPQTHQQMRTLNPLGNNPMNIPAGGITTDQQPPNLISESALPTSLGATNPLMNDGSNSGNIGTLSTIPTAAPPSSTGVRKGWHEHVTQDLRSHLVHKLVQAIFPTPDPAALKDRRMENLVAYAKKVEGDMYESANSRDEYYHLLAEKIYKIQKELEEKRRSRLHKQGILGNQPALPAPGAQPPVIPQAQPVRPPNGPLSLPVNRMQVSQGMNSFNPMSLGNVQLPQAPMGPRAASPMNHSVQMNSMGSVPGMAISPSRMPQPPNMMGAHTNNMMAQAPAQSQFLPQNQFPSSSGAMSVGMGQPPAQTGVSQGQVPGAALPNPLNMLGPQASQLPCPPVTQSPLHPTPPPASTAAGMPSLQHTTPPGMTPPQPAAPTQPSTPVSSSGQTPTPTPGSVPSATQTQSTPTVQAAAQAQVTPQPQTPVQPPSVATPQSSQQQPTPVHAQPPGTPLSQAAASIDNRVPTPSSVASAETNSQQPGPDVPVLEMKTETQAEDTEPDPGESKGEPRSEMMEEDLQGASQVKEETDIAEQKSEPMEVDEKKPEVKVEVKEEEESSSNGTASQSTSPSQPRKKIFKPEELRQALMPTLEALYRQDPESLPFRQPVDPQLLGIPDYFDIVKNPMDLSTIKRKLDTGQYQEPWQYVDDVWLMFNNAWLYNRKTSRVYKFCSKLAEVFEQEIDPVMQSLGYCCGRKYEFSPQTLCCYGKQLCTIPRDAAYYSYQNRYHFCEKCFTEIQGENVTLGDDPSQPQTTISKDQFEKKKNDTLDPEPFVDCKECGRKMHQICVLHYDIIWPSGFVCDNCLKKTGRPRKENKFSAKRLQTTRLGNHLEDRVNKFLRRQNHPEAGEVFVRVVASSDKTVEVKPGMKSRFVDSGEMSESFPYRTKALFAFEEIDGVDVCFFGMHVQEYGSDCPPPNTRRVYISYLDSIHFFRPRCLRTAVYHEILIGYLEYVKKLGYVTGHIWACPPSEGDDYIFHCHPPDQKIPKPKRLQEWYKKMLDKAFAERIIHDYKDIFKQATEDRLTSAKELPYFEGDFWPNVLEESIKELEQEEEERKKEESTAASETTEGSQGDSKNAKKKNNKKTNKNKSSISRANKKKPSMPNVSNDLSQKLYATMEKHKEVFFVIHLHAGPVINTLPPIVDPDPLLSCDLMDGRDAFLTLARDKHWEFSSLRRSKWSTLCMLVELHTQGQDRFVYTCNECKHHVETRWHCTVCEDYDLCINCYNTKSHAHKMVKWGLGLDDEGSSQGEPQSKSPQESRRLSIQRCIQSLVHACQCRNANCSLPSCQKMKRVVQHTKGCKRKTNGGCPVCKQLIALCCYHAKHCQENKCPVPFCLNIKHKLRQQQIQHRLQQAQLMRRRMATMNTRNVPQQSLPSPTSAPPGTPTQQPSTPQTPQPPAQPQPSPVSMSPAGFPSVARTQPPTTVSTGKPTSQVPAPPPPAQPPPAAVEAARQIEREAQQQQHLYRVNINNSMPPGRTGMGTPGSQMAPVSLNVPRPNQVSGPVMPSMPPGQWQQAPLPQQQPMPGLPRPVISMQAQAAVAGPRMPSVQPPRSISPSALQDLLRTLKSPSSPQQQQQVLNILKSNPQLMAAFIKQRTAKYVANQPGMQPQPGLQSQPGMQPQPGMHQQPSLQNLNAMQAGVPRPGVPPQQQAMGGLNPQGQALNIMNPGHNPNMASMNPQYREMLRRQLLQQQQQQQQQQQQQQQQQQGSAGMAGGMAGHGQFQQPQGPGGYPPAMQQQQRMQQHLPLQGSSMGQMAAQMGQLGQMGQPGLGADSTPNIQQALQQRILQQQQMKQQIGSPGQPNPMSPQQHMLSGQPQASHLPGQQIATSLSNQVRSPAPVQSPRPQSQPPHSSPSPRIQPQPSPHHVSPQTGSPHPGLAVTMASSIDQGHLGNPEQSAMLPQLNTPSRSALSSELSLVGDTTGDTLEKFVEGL
Target sequence in this assay (Q96SW2 whole entry partner): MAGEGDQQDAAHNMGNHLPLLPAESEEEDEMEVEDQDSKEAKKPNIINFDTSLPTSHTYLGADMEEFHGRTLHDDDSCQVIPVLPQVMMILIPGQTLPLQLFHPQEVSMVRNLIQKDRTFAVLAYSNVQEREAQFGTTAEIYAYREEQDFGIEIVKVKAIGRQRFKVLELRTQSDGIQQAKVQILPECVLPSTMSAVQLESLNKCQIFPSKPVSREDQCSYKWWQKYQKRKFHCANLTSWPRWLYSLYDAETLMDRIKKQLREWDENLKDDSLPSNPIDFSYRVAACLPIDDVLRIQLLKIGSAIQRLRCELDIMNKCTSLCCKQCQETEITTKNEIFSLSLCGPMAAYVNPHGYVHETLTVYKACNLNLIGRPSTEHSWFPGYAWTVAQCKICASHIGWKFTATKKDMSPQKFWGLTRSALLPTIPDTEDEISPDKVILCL

[2] = molecular target: T1, Protein cereblon/CREB-binding protein; assay: PROTAC activity at CBP/CRBN in AR positive human VCaP cells assessed as maximal protein degradation at 0.46 nM incubated for 4 hrs by Western blot analysis relative to control; format: cell-based
Target sequence in this assay (Q92793 2-2442 limits assumed): as the sequence (Q92793 2-2442 limits assumed) above
Target sequence in this assay (Q96SW2 whole entry partner): as the sequence (Q96SW2 whole entry partner) above

[3] = molecular target: T1, Protein cereblon/CREB-binding protein; assay: PROTAC activity at CBP/CRBN in AR positive human VCaP cells assessed as maximal protein degradation at 4.1 nM incubated for 4 hrs by Western blot analysis relative to control; format: cell-based
Target sequence in this assay (Q92793 2-2442 limits assumed): as the sequence (Q92793 2-2442 limits assumed) above
Target sequence in this assay (Q96SW2 whole entry partner): as the sequence (Q96SW2 whole entry partner) above

[4] = molecular target: T1, Protein cereblon/CREB-binding protein; assay: PROTAC activity at CBP/CRBN in AR positive human VCaP cells assessed as maximal protein degradation at 12.3 nM incubated for 4 hrs by Western blot analysis relative to control; format: cell-based
Target sequence in this assay (Q92793 2-2442 limits assumed): as the sequence (Q92793 2-2442 limits assumed) above
Target sequence in this assay (Q96SW2 whole entry partner): as the sequence (Q96SW2 whole entry partner) above

[5] = molecular target: T1, Protein cereblon/CREB-binding protein; assay: PROTAC activity at CBP/CRBN in AR positive human VCaP cells assessed as maximal protein degradation at 37 nM incubated for 4 hrs by Western blot analysis relative to control; format: cell-based
Target sequence in this assay (Q92793 2-2442 limits assumed): as the sequence (Q92793 2-2442 limits assumed) above
Target sequence in this assay (Q96SW2 whole entry partner): as the sequence (Q96SW2 whole entry partner) above

[6] = molecular target: T1, Protein cereblon/CREB-binding protein; assay: PROTAC activity at CBP/CRBN in AR positive human VCaP cells assessed as maximal protein degradation at 333.3 nM incubated for 4 hrs by Western blot analysis relative to control; format: cell-based
Target sequence in this assay (Q92793 2-2442 limits assumed): as the sequence (Q92793 2-2442 limits assumed) above
Target sequence in this assay (Q96SW2 whole entry partner): as the sequence (Q96SW2 whole entry partner) above

[7] = molecular target: T2, Protein cereblon/Histone acetyltransferase p300 (Homo sapiens, UniProt Q09472+Q96SW2); assay: PROTAC activity at p300/CRBN in AR positive human VCaP cells assessed as maximal protein degradation at 0.15 nM incubated for 4 hrs by Western blot analysis relative to control; format: cell-based
[8] = molecular target: T2, Protein cereblon/Histone acetyltransferase p300; assay: PROTAC activity at p300/CRBN in AR positive human VCaP cells assessed as maximal protein degradation at 0.46 nM incubated for 4 hrs by Western blot analysis relative to control; format: cell-based
[9] = molecular target: T2, Protein cereblon/Histone acetyltransferase p300; assay: PROTAC activity at p300/CRBN in AR positive human VCaP cells assessed as maximal protein degradation at 4.1 nM incubated for 4 hrs by Western blot analysis relative to control; format: cell-based
[10] = Clearance in male ICR mouse at 1 mg/kg, iv measured upto 24 hrs by LC-MS/MS analysis; format: ADME, organism-based; settings: in vivo
[11] = Efflux ratio of apparent permeability coefficient across basolateral to apical side over apical to basolateral side in human Caco-2 cells at 10 uM incubated for 120 mins by LC-MS/MS analysis; format: ADME, cell-based; settings: caco-2, 2 h
[12] = molecular target: T1, Protein cereblon/CREB-binding protein; assay: PROTAC activity at CBP/CRBN in human LNCaP cells assessed as protein degradation incubated for 4 hrs by Western blot analysis; format: cell-based
[13] = molecular target: T2, Protein cereblon/Histone acetyltransferase p300; assay: PROTAC activity at p300/CRBN in human LNCaP cells assessed as protein degradation incubated for 4 hrs by Western blot analysis; format: cell-based
[14] = molecular target: T2, Protein cereblon/Histone acetyltransferase p300; assay: PROTAC activity at p300/CRBN in human LNCaP cells assessed as maximal protein degradation at 1 uM incubated for 4 hrs by Western blot analysis relative to control; format: cell-based
[15] = molecular target: T2, Protein cereblon/Histone acetyltransferase p300; assay: PROTAC activity at p300/CRBN in human 22Rv1 cells assessed as maximal protein degradation at 1 uM incubated for 4 hrs by Western blot analysis relative to control; format: cell-based
CWR22R [16] = assay: Antiproliferative activity against AR positive human 22Rv1 cells assessed inhibition of cell growth measured after 4 days by CellTiter-Glo Luminescent cell viability assay; format: functional, cell-based; settings: 22Rv1, 96 h
LNCaP = assay: Potency index, ratio of ARV-110 IC50 to test compound IC50 for antiproliferative activity against AR positive human LNCaP cells assessed inhibition of cell growth measured after 4 days by CellTiter-Glo Luminescent cell viability assay; format: functional; settings: time 4 day
[17] = molecular target: T2, Protein cereblon/Histone acetyltransferase p300; assay: PROTAC activity at p300/CRBN in human 22Rv1 cells assessed as reduction in protein level at 100 nM incubated for 4 hrs by multiplexed quantitative proteomics analysis relative to control; format: cell-based; design: scale not given: the % may be the effect or the level left
[18] = molecular target: T1, Protein cereblon/CREB-binding protein; assay: PROTAC activity at CBP/CRBN in human 22Rv1 cells assessed as reduction in protein level at 100 nM incubated for 4 hrs by multiplexed quantitative proteomics analysis relative to control; format: cell-based; design: scale not given: the % may be the effect or the level left
VCaP [19] = assay: Reduction in KLK3 gene expression in AR positive human VCaP cells assessed as reduction in mRNA level measured after 6 hrs by qRT-PCT analysis relative to control; format: functional, cell-based; settings: dose 0.1-1000 nM
VCaP [20] = assay: Reduction in c-Myc gene expression in AR positive human VCaP cells assessed as reduction in mRNA level measured after 6 hrs by qRT-PCT analysis relative to control; format: functional, cell-based; settings: dose 0.1-1000 nM
CWR22R [21] = assay: Reduction in c-Myc gene expression in AR positive human 22Rv1 cells assessed as reduction in mRNA level measured after 6 hrs by qRT-PCT analysis relative to control; format: functional, cell-based; settings: dose 0.1-1000 nM
[22] = Reduction in KLK3 gene expression in AR positive human VCaP cells assessed as reduction in mRNA level at 1 nM measured after 6 hrs by qRT-PCT analysis relative to control; format: functional
[23] = Reduction in KLK3 gene expression in AR positive human LNCaP cells assessed as reduction in mRNA level at 10 nM measured after 6 hrs by qRT-PCT analysis relative to control; format: functional
[24] = Reduction in c-Myc gene expression in AR positive human LNCaP cells assessed as reduction in mRNA level at 10 nM measured after 6 hrs by qRT-PCT analysis relative to control; format: functional
[25] = Reduction in KLK3 gene expression in AR positive human 22Rv1 cells assessed as reduction in mRNA level at 10 nM measured after 6 hrs by qRT-PCT analysis relative to control; format: functional, CWR22R
[26] = Reduction in AR gene expression in AR positive human 22Rv1 cells assessed as reduction in mRNA level at 10 nM measured after 6 hrs by qRT-PCT analysis relative to control; format: functional, CWR22R
[27] = molecular target: T1, Protein cereblon/CREB-binding protein; assay: In vivo PROTAC activity at CBP/CRBN in human VCaP cells xenografted in SCID mouse assessed as reduction in CBP protein at 1 mg/kg, po measured after 24 hrs; format: functional, organism-based; design: scale not given: the % may be the effect or the level left
[28] = molecular target: T1, Protein cereblon/CREB-binding protein; assay: In vivo PROTAC activity at p300/CRBN in human VCaP cells xenografted in CB17 SCID mouse assessed as reduction in CBP protein at 3 mg/kg, po measured after 24 hrs; format: functional, organism-based; design: scale not given: the % may be the effect or the level left
[29] = molecular target: T1, Protein cereblon/CREB-binding protein; assay: In vivo PROTAC activity at p300/CRBN in human VCaP cells xenografted in CB17 SCID mouse assessed as reduction in CBP protein at 1 mg/kg, po measured after 24 hrs; format: functional, organism-based; design: scale not given: the % may be the effect or the level left
[30] = Plasma concentration in CB17 SCID mouse xenografted with human VCaP cells at 3 mg/kg, po measured after 24 hrs by LC-MS/MS analysis; format: ADME, organism-based
[31] = Drug exposure in CB17 SCID mouse xenografted with human VCaP cells assessed compound concentration in tumor at 3 mg/kg, po measured after 3 hrs by LC-MS/MS analysis; format: ADME, organism-based, Neoplasm; settings: read-out: Drug uptake
[32] = Toxicity in CB17 SCID mouse xenografted with human VCaP cells assessed as signs of toxicity at 0.3 to 1 mg/kg, po qd scheduled 5 days in a week measured on day 63; format: organism-based; settings: in vivo, 120 h, dose 0.3-1 mg/kg, time 5 day

SMILES: CC(=O)N1CCc2c(c(N3CCCc4cc(-c5cnn(C)c5)c(C(F)F)cc43)nn2[C@H]2CC[C@H](CN3CCN(c4ccc5c(c4)C(=O)N(C4CCC(=O)NC4=O)C5=O)CC3)CC2)C1 (stereo partly drawn)
- Activity [1]: 15%
- Activity [2]: 76%
- Activity [3]: 97%
- Activity [4]: 98%
- Activity [5]: 98%
- Activity [6]: 78%
- Activity [7]: 50%
- Activity [8]: 80%
- Activity [9]: 100%
- clearance [10]: 1.7 mL/min/kg
- Ratio [11]: 1.2
- DC50 [12]: 0.3 nM
- DC50 [13]: 0.4 nM
- Emax [14]: 95%
- Emax [15]: 91%
- IC50 (CWR22R [16]): 1.2 nM
- Ratio IC50 (LNCaP): >50
- Activity [17]: 79%
- Activity [18]: 50%
- inhibition (VCaP [19]): Dose-Dependent Effect
- inhibition (VCaP [20]): Dose-Dependent Effect
- inhibition (CWR22R [21]): Dose-Dependent Effect
- inhibition at 0.001 µM [22]: 57%
- inhibition at 0.01 µM [23]: 70%
- inhibition at 0.01 µM [24]: > 95%
- inhibition at 0.01 µM [25]: 75%
- inhibition at 0.01 µM [26]: 43%
- Activity [27]: > 95%
- Activity [28]: > 95%
- Activity [29]: > 95%
- concentration at 24 h [30]: 21 ng/mL
- concentration at 3 h [31]: 141 ng/mL
- Activity [32]: Non-Toxic
